Results as given in ChEMBL document CHEMBL5614423, “Proximal fleximer analogues of 2'-deoxy-2'-fluoro-2'-methyl purine nucleos(t)ides: Synthesis and preliminary pharmacokinetic and antiviral evaluation” (Bioorg Med Chem, 2024).
Activity calls are given as the source filed them. The calls are words filed in the database; no cut-off is given here.

How the values were obtained:
Nipah virus = assay: Antiviral activity against Nipah virus upto 100 uM; assay type: functional, organism-based; conditions: Henipavirus nipahense
Chikungunya virus = assay: Antiviral activity against Chikungunya virus upto 100 uM; assay type: functional, organism-based
dengue virus type 2 = assay: Antiviral activity against Dengue virus 2 upto 100 uM; assay type: functional, organism-based
[1] = test system: Middle East respiratory syndrome-related coronavirus; assay: Antiviral activity against MERS CoV upto 100 uM; assay type: functional, organism-based
Human alphaherpesvirus 1 = assay: Antiviral activity against HSV 1 upto 150 uM; assay type: functional, organism-based
Cytomegalovirus = assay: Antiviral activity against Cytomegalovirus upto 150 uM; assay type: functional, organism-based
Human gammaherpesvirus 4 = assay: Antiviral activity against Epstein Barr virus upto 150 uM; assay type: functional, organism-based
Zaire ebolavirus [2] = assay: Antiviral activity against Zaire Ebola virus; assay type: functional, organism-based
Zaire ebolavirus [3] = assay: Antiviral activity against Zaire Ebola virus upto 100 uM; assay type: functional, organism-based
[4] = Toxicity in CD-1 mouse assessed as occurence of adverse event at 100 to 300 mg/kg, ip for 3 days; assay type: organism-based; conditions: in vivo, 72 h, dose 100-300 mg/kg, time 3 day
[5] = Toxicity in CD-1 mouse assessed as drug tolerance at 100 to 300 mg/kg, ip for 3 days; assay type: organism-based; conditions: in vivo, 72 h, dose 100-300 mg/kg, time 3 day
[6] = Half life in CD-1 mouse at 100 mg/kg by MS analysis; assay type: ADME, organism-based; conditions: in vivo
[7] = AUC in CD-1 mouse at 100 mg/kg measured for 24 hrs by MS analysis; assay type: ADME, organism-based; conditions: in vivo

| SMILES | Activity (Nipah virus) | Activity (Chikungunya virus) | Activity (dengue virus type 2) | Activity [1] | Activity (Human alphaherpesvirus 1) | Activity (Cytomegalovirus) | Activity (Human gammaherpesvirus 4) | EC50 (Zaire ebolavirus [2]) [µM] | Activity (Zaire ebolavirus [3]) | Activity [4] | Activity [5] | half-life [6] [h] | AUC [7] [ng·h/mL] |
| --- | --- | --- | --- | --- | --- | --- | --- | --- | --- | --- | --- | --- | --- |
| CNc1nc(N)ncc1-c1cn([C@@H]2O[C@H](CO[P@@](=O)(N[C@@H](C)C(=O)OC(C)C)Oc3ccccc3)[C@@H](O)[C@@]2(C)F)cn1 | inactive | inactive | inactive | inactive | inactive | inactive | inactive | 30 |  |  |  |  |  |
| CNc1nc(N)ncc1-c1cn([C@@H]2O[C@H](CO)[C@@H](O)[C@@]2(C)F)cn1 | inactive | inactive | inactive | inactive | inactive | inactive | inactive |  | inactive | Non-Toxic | Non-Toxic | 1 | 36000 |
